Laboratory results: ChEMBL document CHEMBL4138291, “Mucroniferanines A-G, Isoquinoline Alkaloids from Corydalis mucronifera” (J Nat Prod, 2018)

biological target: Acetylcholinesterase (Homo sapiens, UniProt P22303); assay: Inhibition of human erythrocyte AChE using S-acetylthiocholine iodide as substrate pretreated for 20 mins followed by substrate addition measured after 30 mins by Ellman's method
Sequence (P22303 whole entry): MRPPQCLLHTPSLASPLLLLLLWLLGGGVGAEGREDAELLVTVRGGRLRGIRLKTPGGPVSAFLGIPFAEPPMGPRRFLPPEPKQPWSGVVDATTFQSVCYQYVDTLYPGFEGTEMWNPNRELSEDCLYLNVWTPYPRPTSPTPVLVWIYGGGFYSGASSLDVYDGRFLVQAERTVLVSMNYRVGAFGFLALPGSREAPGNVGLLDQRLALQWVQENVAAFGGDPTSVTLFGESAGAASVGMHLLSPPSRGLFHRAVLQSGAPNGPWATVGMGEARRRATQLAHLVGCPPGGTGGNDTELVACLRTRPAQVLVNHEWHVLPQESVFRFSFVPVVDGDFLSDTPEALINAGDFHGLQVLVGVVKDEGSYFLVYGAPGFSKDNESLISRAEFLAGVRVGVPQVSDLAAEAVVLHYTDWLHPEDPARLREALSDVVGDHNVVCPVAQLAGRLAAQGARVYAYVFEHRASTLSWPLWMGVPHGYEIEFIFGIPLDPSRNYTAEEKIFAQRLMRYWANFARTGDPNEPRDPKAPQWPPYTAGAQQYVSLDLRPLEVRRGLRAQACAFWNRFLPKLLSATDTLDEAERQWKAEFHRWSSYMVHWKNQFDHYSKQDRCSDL

| SMILES | IC50 |
| --- | --- |
| CO[C@@H]1O[C@](C)(c2nccc3cc4c(cc23)OCO4)c2ccc3c(c21)OCO3 | > 100 µM |
| C[C@H](c1ccc2c(c1O)OCO2)c1nccc2cc3c(cc12)OCO3 | > 100 µM |
| C[C@@H](c1ccc2c(c1O)OCO2)c1nccc2cc3c(cc12)OCO3 | > 100 µM |
| CN1CCc2cc3c(cc2[C@@]12C(=O)c1ccc4c(c1[C@@H]2O)OCO4)OCO3 | > 100 µM |
| c1cc2cc3c(cc2c([C@H]2Oc4ccc5c(c4O2)OCO5)n1)OCO3 | 78.1 µM |
| c1cc2cc3c(cc2c([C@@H]2Oc4ccc5c(c4O2)OCO5)n1)OCO3 | > 100 µM |
| CN1CCc2cc3c(cc2C12OCc1c(ccc4c1OCO4)C2=O)OCO3 (racemic) | > 100 µM |
| CC1(c2nccc3cc4c(cc23)OCO4)OC(O)c2c1ccc1c2OCO1 (single isomer, unassigned) | 11.3 µM |
| CN1CCc2cc3c(cc2C(=O)Cc2ccc4c(c2C1)OCO4)OCO3 | > 100 µM |
| CC1(c2nccc3cc4c(cc23)OCO4)OC(O)c2c1ccc1c2OCO1 (single isomer, unassigned; epimer 1) | 12.2 µM |
| CO[C@H]1O[C@@](C)(c2nccc3cc4c(cc23)OCO4)c2ccc3c(c21)OCO3 | 28.3 µM |
| CO[C@@H]1O[C@@](C)(c2nccc3cc4c(cc23)OCO4)c2ccc3c(c21)OCO3 | > 100 µM |
| COc1ccc2c(c1O)CN1CCc3cc4c(cc3C1C2)OCO4 (configuration not stated) | > 100 µM |
| C[C@]1(c2nccc3cc4c(cc23)OCO4)Oc2ccc3c(c2O1)OCO3 | > 100 µM |
| CO[C@@H]1O[C@H]([C@@H]2c3cc4c(cc3CCN2C)OCO4)c2ccc3c(c21)OCO3 | > 100 µM |
| CO[C@H]1O[C@](C)(c2nccc3cc4c(cc23)OCO4)c2ccc3c(c21)OCO3 | > 100 µM |
| COC1c2c(ccc3c2OCO3)-c2ccc3cc4c(cc3c2N1C)OCO4 (configuration not stated) | 96.8 µM |
| CN1CCc2cc3c(cc2[C@H]1[C@H]1O[C@@H](O)c2c1ccc1c2OCO1)OCO3 | > 100 µM |
| C[C@@]1(c2nccc3cc4c(cc23)OCO4)Oc2ccc3c(c2O1)OCO3 | > 100 µM |
| CN1Cc2c(ccc3c2OCO3)-c2ccc3cc4c(cc3c21)OCO4 [DIHYDROSANGUINARINE] | > 100 µM |
| CN1CCc2cc3c(cc2[C@H]1[C@H]1OC(=O)c2c1ccc1c2OCO1)OCO3 | > 100 µM |
| CN1CCc2cc3c(cc2C1=O)OCO3 | > 100 µM |
